# Laboratory results as given in article PMC9749936, “Synthesis and structure–activity relationship studies of N-terminal analogues of the lipopeptide antibiotics brevicidine and laterocidine” (RSC Medicinal Chemistry, 2022).
# Bridge positions count the residues as written; N and C are the ends. Square brackets hold non-standard residues; d marks the D form. Peptide text beside a SMILES is read from it. * marks the point of attachment. Palmitoyl = CCCCCCCCCCCCCCCC(=O)*; Decanoyl = CCCCCCCCCC(=O)*; dOrn = NCCC[C@@H](N)C(=O)O; Octanoyl = CCCCCCCC(=O)*; Orn = NCCC[C@H](N)C(=O)O; Hexanoyl = CCCCCC(=O)*
# Experiments:
# P. aeruginosa PAO1 = type: cell-based, Pseudomonas aeruginosa; details: PAO1, 18 h
# Method: (§1) The minimum inhibitory concentrations (MICs) of brevicidine and laterocidine analogues were determined against a panel of clinically relevant ESKAPE pathogens; Escherichia coli (E. coli), Klebsiella pneumoniae (K. pneumoniae), Acinetobacter baumannii (A. baumannii), Pseudomonas aeruginosa (P. aeuroginosa) and Staphylococcus aureus (S. aureus), which cause the majority of nosocomial infections in the United States.[16] […] In this resistance mechanism, the polymyxin target (lipid A) is modified, reducing binding affinity. For this reason, a strain of colistin-resistant E. coli carrying the mcr-1 gene was also included in the panel. […]
# (§2) IV. Antimicrobial testing
# (§3) All minimum inhibitory concentrations (MICs) were determined according to Clinical and Standards Laboratory Institute (CLSI) guidelines. Blood agar plates were inoculated with glycerol stocks of E. coli ATCC 25922, K. pneumoniae ATCC 13883, A. baumannii ATCC 17961, P. aeruginosa PAO1 and S. aureus USA300. The inoculated agar plates were then incubated for 16 h at 37 °C . Individually grown colonies were subsequently used to inoculate 5 mL aliquots of TSB that were then incubated at 37 °C with shaking at 220 rpm. E. coli 25922 MCR-1 glycerol stock was used to inoculate 5 mL of TSB supplemented with kanamycin that was then incubated for 16 h at 37 °C with shaking at 220 rpm. The next day the culture was diluted 100 fold in TSB supplemented with kanamycin and incubated at 37 °C with shaking at 220 rpm. In parallel, the lipopeptide antibiotics DMSO stocks to be assessed were serially diluted with MHB in polypropylene 96-well plates (50 µL in each well). Colistin sulfate stocks were dissolved in water before being diluted with MHB. Aliquots of the inoculated TSB were incubated until an OD600 of around 0.5 was reached. The bacterial suspensions were then diluted with MHB (2 x 10^5 CFU mL-1) and added to the microplates containing the test compounds (50 µL to each well). The well-plates were sealed with an adhesive membrane and after 18 h of incubation at 37 °C with shaking at 600 rpm, the wells were visually inspected for bacterial […]
# (§4) growth. MIC values reported are based on three technical replicates and defined as the lowest concentration of the compound that prevented visible growth of bacteria. […]
# (§5) The values obtained from a read-out at 415 nm were corrected for background (negative control) and transformed to a percentage relative to the positive control.
# (§6) VI. HPLC and HRMS analysis of peptides
# (§7) Peptide Name Chemical Calcd Mass found Calcd Overall […]
# Sheep red blood cells = type: cell-based; details: red cells of sheep, 1 h, 64 μg mL^−1
# Method: Having ascertained the antimicrobial activity of all synthetic peptides against a panel of ESKAPE pathogens, we next assessed their mammalian toxicity with hemolytic assays using sheep red blood cells. The % hemolysis for all peptides at 64 μg mL^−1 was determined, with the hemolysis induced by the surfactant 0.1% Triton X-100 taken as 100%. […] Hemolysis was <1% for all analogues with a C8 chain or shorter, including the strongest antibacterial peptide C8-Lat (22). Hemolytic activity increased up to C14 (>50% for C14-Lat) and then decreased at longer chain lengths, perhaps due to decreased solubility of peptides or aggregation. […]
# Phosphate-Buffered Saline (PBS) containing 0.002% Tween20 (buffer) five times. Then, the red blood cells were normalized to obtain a positive control read-out between 2.5 and 3.0 at 415 nm to stay within the linear range with the maximum sensitivity. A serial dilution of the compounds (128 – 1 µg/mL, 75 µL) was prepared in a 96-well polypropylene plate. The outer border of the plate was filled with 75 µL buffer. Each plate contained a positive control (0.1% Triton-X final concentration, 75 µL) and a negative control (buffer, 75 µL) in triplicate. The normalized blood cells (75 µL) were added and the plates were incubated at 37 °C for 1 h while shaking at 500 rpm. A flat-bottom polystyrene plate with 100 µL buffer in each well was prepared. After incubation, the plates were centrifuged (800 g for 5 min at room temperature) and 25 µL of the supernatant was transferred to their respective wells in the flat-bottom plate. The values obtained from a read-out at 415 nm were corrected for background (negative control) and transformed to a percentage relative to the positive control. […]
# E. coli ATCC 25922 MCR-1 = type: cell-based, Escherichia coli; details: colistin-resistant strain carrying mcr-1; CLSI broth microdilution in MHB, 18 h at 37 °C, visual inspection; three technical replicates
# Method: as §1
# Colisitin sulfate was purchased from Activate Scientific. Kanamycin monosulfate was purchased from MP Biomedicals. E. coli ATCC 25922, S. aureus USA300 (ATCC BAA1717), K. pneumoniae ATCC 13883 and A. baumannii ATCC 17961 belong to the American Type Culture Collection (ATCC). P. aeruginosa PAO1 was kindly provided by L.H.C. Quarles Van Ufford, Utrecht University, Utrecht, The Netherlands. E. coli ATCC 25922 MCR-1 was transfected in house using the pGDP2-MCR1 plasmid kindly provided by Yong-Xin Li, The University of Hong Kong, Hong Kong, China. Sheep blood agar plates (Ref. PB5039A) were purchased from Thermo Scientific. Tryptic soy broth (Ref. 02-200-500) was purchased from Scharlab. Mueller-Hinton broth (Ref. X927.1) was purchased from Carl Roth. Polypropylene 96-wells plates (Ref. 3879) were purchased from Corning. […]
# (10.0 mL). 2-Chlorotrityl (CT) chloride resin (2.00 g, 0.81 mmol g-1) and DIPEA (420 µL, 2.40 mmol) were added. […]
# A gradient […]
# method for C14 - C16 laterocidine was employed, starting at 100% solvent A for 2 min, ramping up to 70 % solvent B over 45 min, ramping up to 100% solvent B over 1 min, remaining there for 6 min before ramping down to 100% solvent A and remaining there for 5 min. High resolution mass spectrometry (HRMS) spectra of brevicidine peptides were recorded by Analytical Services and Environmental Projects (ASEP) at Queen’s University Belfast on a Waters LCT Premier ToF mass spectrometer using the electrospray ionisation (ESI) technique. HRMS spectra of laterocidine peptides were performed on a Thermo Scientific Dionex UltiMate 3000 HPLC system with a Phenomenex Kinetex C18 (2.6 µm, 2.1 x 150 mm) column at 35 °C and equipped with a diode array detector. The following solvent system, at a flow rate of 0.3 mL/min, was used: solvent A = 0.1% formic acid in water, solvent B = 0.1% formic acid in acetonitrile. A gradient method was employed, starting at 95 % solvent A and 5 % solvent B for 1 min, ramping up to 95 % solvent B over 9 min, ramping up to 98 % solvent B over 1 min, remaining there for 1 min before ramping back down to 95 % solvent A over 2 min and remaining there for 1 min.
# The system was connected to a Bruker micrOTOF-Q II mass spectrometer (ESI ionization) calibrated internally with sodium […]
# as §2
# as §3, with “MHB.” for “MHB. Aliquots of the inoculated TSB were incubated until an OD600 of around 0.5 was reached. The bacterial suspensions were then diluted with MHB (2 x 10^5 CFU mL-1) and added to the microplates containing the test compounds (50 µL to each well). The well-plates were sealed with an adhesive membrane and after 18 h of incubation at 37 °C with shaking at 600 rpm, the wells were visually inspected for bacterial”
# S. aureus USA300 = type: cell-based, Staphylococcus aureus; details: USA300, 18 h
# Method: as §1, §2, §3, §4, §5, §6, §7
# E. coli ATCC 25922 = type: cell-based, Escherichia coli; details: ATCC 25922, 18 h
# Method: as §1, §2, §3, §4, §5, §6, §7
# K. pneumoniae ATCC 13883 = type: cell-based, Klebsiella pneumoniae; details: ATCC 13883, 18 h
# Method: as §1, §2, §3, §4, §5, §6, §7
# A. baumannii ATCC 17961 = type: cell-based, Acinetobacter baumannii; details: ATCC 17961, 18 h
# Method: as §1, §2, §3, §4, §5, §6, §7
SMILES,Antimicrobial activity (MIC) P. aeruginosa PAO1 (P. aeruginosa PAO1) [µg/mL],"% Hemolytic activity, sheep red blood cells (Sheep red blood cells) [%]",Antimicrobial activity (MIC) E. coli ATCC 25922 MCR-1 (E. coli ATCC 25922 MCR-1) [µg/mL],Antimicrobial activity (MIC) S. aureus USA300 (S. aureus USA300) [µg/mL],Antimicrobial activity (MIC) E. coli ATCC 25922 (E. coli ATCC 25922) [µg/mL],Antimicrobial activity (MIC) K. pneumoniae ATCC 13883 (K. pneumoniae ATCC 13883) [µg/mL],Antimicrobial activity (MIC) A. baumannii ATCC 17961 (A. baumannii ATCC 17961) [µg/mL]
CC[C@H](C)[C@@H]1NC(=O)[C@@H](NC(=O)[C@H](Cc2c[nH]c3ccccc23)NC(=O)[C@@H](CCCN)NC(=O)CNC(=O)[C@H](CCCN)NC(=O)[C@@H](CCCN)NC(=O)[C@@H](Cc2c[nH]c3ccccc23)NC(=O)[C@@H](Cc2ccc(O)cc2)NC(=O)[C@@H](CO)NC(C)=O)[C@@H](C)OC(=O)CNC(=O)CNC(=O)[C@H](CC(N)=O)NC1=O [Compound 19] (Ac-[dS][dY][dW][dOrn][Orn]G[dOrn]WTINGG; ester 9-C),16,0.2,>32,>32,>32,>32,>32
CCCCCCCCCC(=O)N[C@H](CO)C(=O)N[C@H](Cc1ccc(O)cc1)C(=O)N[C@H](Cc1c[nH]c2ccccc12)C(=O)N[C@H](CCCN)C(=O)N[C@@H](CCCN)C(=O)NCC(=O)N[C@H](CCCN)C(=O)N[C@@H](Cc1c[nH]c2ccccc12)C(=O)N[C@@H]1C(=O)N[C@@H]([C@@H](C)CC)C(=O)N[C@@H](CC(N)=O)C(=O)NCC(=O)NCC(=O)O[C@@H]1C [Compound 23] (Decanoyl-[dS][dY][dW][dOrn][Orn]G[dOrn]WTINGG; ester 9-C),2,2.1,2,>32,2,2 to 4,2
CCCCCCCC(=O)N[C@H](CC(N)=O)C(=O)N[C@H](Cc1ccc(O)cc1)C(=O)N[C@H](Cc1c[nH]c2ccccc12)C(=O)N[C@H](CCCN)C(=O)N[C@@H](CCCN)C(=O)NCC(=O)N[C@H](CCCN)C(=O)N[C@@H](Cc1c[nH]c2ccccc12)C(=O)N[C@@H]1C(=O)N[C@@H]([C@@H](C)CC)C(=O)NCC(=O)N[C@@H](CO)C(=O)O[C@@H]1C [Compound 13] (Octanoyl-[dN][dY][dW][dOrn][Orn]G[dOrn]WTIGS; ester 9-C),8,0.4,16,>32,16,16,16
CCCCCCCCCCCCCCCC(=O)N[C@H](CO)C(=O)N[C@H](Cc1ccc(O)cc1)C(=O)N[C@H](Cc1c[nH]c2ccccc12)C(=O)N[C@H](CCCN)C(=O)N[C@@H](CCCN)C(=O)NCC(=O)N[C@H](CCCN)C(=O)N[C@@H](Cc1c[nH]c2ccccc12)C(=O)N[C@@H]1C(=O)N[C@@H]([C@@H](C)CC)C(=O)N[C@@H](CC(N)=O)C(=O)NCC(=O)NCC(=O)O[C@@H]1C [Compound 26] (Palmitoyl-[dS][dY][dW][dOrn][Orn]G[dOrn]WTINGG; ester 9-C),32,46.1,32,32,32,>32,4
CCCCCC(=O)N[C@H](CC(N)=O)C(=O)N[C@H](Cc1ccc(O)cc1)C(=O)N[C@H](Cc1c[nH]c2ccccc12)C(=O)N[C@H](CCCN)C(=O)N[C@@H](CCCN)C(=O)NCC(=O)N[C@H](CCCN)C(=O)N[C@@H](Cc1c[nH]c2ccccc12)C(=O)N[C@@H]1C(=O)N[C@@H]([C@@H](C)CC)C(=O)NCC(=O)N[C@@H](CO)C(=O)O[C@@H]1C [Compound 12] (Hexanoyl-[dN][dY][dW][dOrn][Orn]G[dOrn]WTIGS; ester 9-C),>32,0.3,8,>32,8,4,16
